Measured values: paper PMC7440915, “Discovery of surrogate agonists for visceral fat Treg cells that modulate metabolic indices in vivo” (eLife, 2020)
Where no end group is shown, it is not given here.

Tested on: vTreg53 Treg cells and VAT immunocytes
Experiment: Immunocyte composition of spleen and VAT in HFD-fed mice after vTreg53 Treg transfer and immunization
Assay type: in vivo, mouse
Description: Figure 6. Immunization with Fat1562 expands transferred vTreg53 Treg cells and suppresses HFD-induced VAT inflammation. (A) Scheme of the transfer and immunization protocol. (B) Frequencies of CD45.2^+ cells in Treg cells (n ≥ 7). (C) Frequencies of clonotype^+ cells in transferred CD45.2^+ Treg cells (n ≥ 7). (D) Number of clonotype^+ CD45.2^+ Treg cells in the spleen (n ≥ 7). (E) Number of clonotype^+ CD45.2^+ Treg cells in the VAT (n ≥ 7). (F) Number of total Treg cells in the spleen (n ≥ 7). (G) Number of total Treg cells in VAT (n ≥ 7). (H) Numbers of eosinophils and CD11c^hi inflammatory macrophages in VAT (n ≥ 7). Data are mean ± SD. Data shown are representative of at least two independent experiments. Figure 6—figure supplement 1. Gating strategy. Gating strategy used for detection of VAT Treg cells (top) and, eosinophils or macrophage cells (bottom) by flow cytometry. [drawing 6] TEXT PRINTED IN THE PICTURE: (B) adjuvant: Spl: 0.3 (Gated on Tregs); VAT: 4 (Gated on Tregs) | (B) adjuvant/ Fat1562: Spl: 1.2 (Gated on Tregs); VAT: 53.4 (Gated on Tregs) | (C) adjuvant: Spl: 62.3 (Gated on CD45.2^+ Tregs); VAT: 94.1 (Gated on CD45.2^+ Tregs) | (C) adjuvant/ Fat1562: Spl: 94.1 (Gated on CD45.2^+ Tregs); VAT: 97.8 (Gated on CD45.2^+ Tregs) | (H) adjuvant: 9.3 (Gated on CD45.1^+); 46.3 (Gated on CD45.1^+); 41.3 (Gated on F4/80^+) | (H) adjuvant/ Fat1562: 14.5 (Gated on CD45.1^+); 39.6 (Gated on CD45.1^+); 22.6 (Gated on F4/80^+) DOUBTS OF THE COPYIST ABOUT THIS PICTURE: All values are gate numbers printed inside flow cytometry plots; no measure or unit is printed beside them, so it is uncertain whether they count as results for a substance / 'adjuvant' is the control treatment and 'adjuvant/Fat1562' the test treatment; these are treatment groups, not single compounds / Panel B, adjuvant, VAT: printed as 4, a decimal may be hidden
Mice were asphyxiated with CO2. Epididymal VAT was excised, minced and digested for 20 min with 1.5 mg/ml collagenase type II (Sigma) in Dulbecco’s Modified Eagle’s Medium (DMEM) supplemented with 2% fetal calf serum (FCS) in a 37°C water bath with shaking. The digested materials were filtered through a sieve and then a 40 µm nylon cell strainer. The stromal vascular fraction was collected after centrifugation at 450 g for 10 min. For surface markers, cells were stained with anti-CD45.1 (A20), -CD45.2 (104), -CD3 (17A2), -CD4 (GK1.5), -TCR Vα2 (B20.1), -CD44 (IM7), -CD62L (MEL-14), -CD45 (30-F11), -CD11b (M1/70), -CD11c (N418), -F4/80 (BM8) mAbs (all from Biolegend), and anti-TCR Vβ4 (KT4), anti-Siglec-F (E50-2440) mAbs (both from BD Biosciences), as detailed in experiment descriptions. Foxp3 staining was performed using the Foxp3/Transcription Factor Staining Buffer Set and anti-Foxp3 (FJK-16s) mAb (both from eBioscience). Cells were acquired with an LSRII flow cytometer (BD Biosciences), an Accuri (BD Biosciences) or Cytoflex (Beckman Coulter). Propidium Iodide was used to distinguish live from dead cells. Assays were performed in biological duplicates or triplicates as described in the figure legends. Data were analyzed using FlowJo.
To assess early Treg proliferation following peptide stimulation in vivo, 0.4 million Treg cells were sorted from pooled Spl and LNs of 6-8wk-old male CD45.2^+ Tg^+ Foxp3-GFP^KI/y mice by Moflo, labeled by the CellTrace Violet dye (ThermoFisher Scientific), and were i.v.-injected into 6-8wk old male B6.CD45.1^+ mice. The next day, the recipient mice were injected with 200 µg peptides emulsified in CFA (CFA/peptides) s.c. on the lower back. Proliferation of clonotype^+ Tregs in the spleen was determined three days later. To examine the expansion of VAT-Treg cells by peptide immunization, we sorted 0.4 million Treg cells from pooled Spl/LNs of 6-8wk-old male CD45.2^+ Tg^+ Foxp3-GFP^KI/y mice and transferred them i.v. into 6-8wk old male B6.CD45.1^+ mice. […]

TMYKNPRPMAATG [Fat1562]
VAT inflammation: reduced VAT inflammation | expansion of adoptively transferred vTreg53 cells: significant expansion | clonotype^+ TCR-tg Treg cells, share of entire VAT-Treg pool (VAT, n ≥ 7): almost half | frequency of CD11c^hi pro-inflammatory macrophages in VAT (VAT, n ≥ 7): reducing the frequency of CD11c^hi pro-inflammatory macrophages | proportion of eosinophils in VAT (VAT, n ≥ 7): significantly increased the proportion of eosinophils | total number of VAT Treg cells (VAT, n ≥ 7): significantly elevated | donor-derived cells, share of total Treg pool in spleen (spleen, immunization with Fat1562): less than 2% | total number of splenic Treg cells (spleen, n ≥ 7): did not show a significant increase
